Experimental data reported in patent publication US12497460B2, “Anti-MSR1 antibodies and methods of use thereof” (REGENERON PHARMACEUTICALS, INC., priority 2018, dated 2025).

Tests used:
LXR (THP1/LXR-Luc cells) = experiment: Cell based LXR responsive luciferase reporter assay (Examples 34A, 34C); details: Homo sapiens, payload compounds, differentiated THP-1/LXR-Luc cells (Table 30); for maximal fold induction: read-out: S/N
Protocol: The activity of certain LXR agonist payloads described herein were assessed in a cell based LXR responsive luciferase reporter assay. To generate the assay cell line, an LXR regulated luciferase reporter gene (Cignal Lenti LXR Reporter (luc) kit (Qiagen, Cat #CLS-001L)) was transduced into THP1 cells and the cells were selected for two weeks in puromycin. The lentivirus expresses the firefly luciferase gene under the control of a minimal CMV promoter and tandem repeats of the LXR transcriptional response element. The resulting cell line is referred to as THP1/LXR-Luc cells. For the assay, THP1/LXR-Luc cells were seeded onto 96 well plates at 40,000 cells/well in media containing RPMI supplemented with 10% FBS and penicillin/streptomycin and were then differentiated with 200 nM Phorbol Myristate Acetate (PMA) for 3 days. The media was subsequently removed and replaced with 80 uL of fresh media without PMA. Three-fold serial dilutions of free payloads were prepared in 100% DMSO, transferred to fresh media, and 20 uL were added to the cells at a final constant DMSO concentration of 0.2% and free payloads at final concentrations ranging from 100 nM to 0.015 nM. The last well in the plate served as blank control containing only the media and 0.2% DMSO (untreated well) and was plotted as a continuation of the 3-fold serial dilution. Forty-eight hours later, luciferase activity was determined after the addition of One-Glo™ reagent (Promega, Cat #E6130) to each well. Relative light units (RLUs) were measured on a Victor luminometer (PerkinElmer) and EC50 values were determined using a four-parameter logistic equation over a 10-point dose response curve (GraphPad Prism). The signal to noise (S/N) was determined by taking the ratio of the highest RLU on the dose response curve to the RLU in the untreated wells.
Several linker-payloads (LPs) were derived from the payload compounds in Table C and conjugated to an anti-MSR1 antibody (H1H21234N-N297Q) or a non-binding control using the techniques described in the previous example. The resulting anti-MSR1 LXR agonist antibody drug conjugates (ADCs) were tested for activity in the THP1/LXRLuc reporter assay as described above for the payload compounds.

[1] = system: S. aureus MRSA strain NRS384 in humanized MSR1 mice; experiment: S. aureus IV disseminated infection mouse model, kidney burden; format: in vivo
Protocol: To test the efficacy of an anti-MSR1 Ab-antibiotic ncADC of the invention in vivo, an intravenous disseminated infection model was utilized. S. aureus MSRA strain NRS384 was grown overnight in trypic soy broth (TSB) and sub-cultured to mid-logarithmic phase. Bacteria were then washed twice with PBS and resuspended in PBS at a concentration of 1.2×10^8 cfu/mL. […] From one to three days post infection, mice were treated with 110 mg/kg vancomycin subcutaneously twice daily where indicated. […] Mice were monitored for weight loss and body conditioning score throughout the infection. At four days post infection, mice were euthanized and the S. aureus kidney burden was quantified by tissue homogenization followed by enumeration of colony forming units through serial dilution in PBS and plating onto trypicase soy agar plates.

[2] = vancomycin treatment alone, limit of detection 250 cfu

SMILES	EC50 (LXR (THP1/LXR-Luc cells)) [nM]	maximal fold induction (LXR (THP1/LXR-Luc cells))	reduction of S. aureus kidney burden ([1]; 110 mg/kg s.c. twice daily, days 1 to 3 post infection, day 4)	mice with S. aureus levels below the LOD (in words) ([1]; vancomycin alone, 110 mg/kg s.c. twice daily)	# of mice with S. aureus below the limit of detection [1, 2]	Average cfu/kidney pair [1, 2] [cfu/kidney pair]
C[C@]1(C(=O)NC(=O)[C@@]2(C)CCC[C@]3(C)c4cc(N)ccc4CC[C@@H]23)CCC[C@]2(C)c3cc(N)ccc3CC[C@@H]12 [P2B, (1S,4aS,10aR)-6-Amino-N-((1S,4aS,10aR)-6-amino-1,4a-dimethyl-1,2,3,4,4a,9,10,10a-octahydrophenanthrene-1-carbonyl)-1,4a-dimethyl-1,2,3,4,4a,9,10,10a-octahydrophenanthrene-1-carboxamide]	0.292	11.3	–	–	–	–
C[C@]1(C(=O)NC(=O)[C@@]2(C)CCC[C@]3(C)c4cc(O)ccc4CC[C@@H]23)CCC[C@]2(C)c3cc(N)ccc3CC[C@@H]12 [P1, (1S,4aS,10aR)-N-[(1S,4aS,10aR)-6-Amino-1,4a-dimethyl-1,2,3,4,4a,9,10,10a-octahydrophenanthrene-1-carbonyl]-6-hydroxy-1,4a-dimethyl-1,2,3,4,4a,9,10,10a-octahydrophenanthrene-1-carboxamide]	1.14	11.4	–	–	–	–
C[C@H](NC(=O)[C@@H](N)CCC(=O)O)C(=O)Nc1ccc2c(c1)[C@@]1(C)CCC[C@](C)(C(=O)NC(=O)[C@@]3(C)CCC[C@]4(C)c5cc(N)ccc5CC[C@@H]34)[C@@H]1CC2 [P12B, (S)-4-Amino-5-((S)-1-((4bS,8S,8aR)-8-((1S,4aS,10aR)-6-amino-1,4a-dimethyl-1,2,3,4,4a,9,10,10a-octahydrophenanthrene-1-carbonylcarbamoyl)-4b,8-dimethyl-4b,5,6,7,8,8a,9,10-octahydrophenanthren-3-ylamino)-1-oxopropan-2-ylamino)-5-oxopentanoic acid]	0.296	11.4	–	–	–	–
C[C@]1(C(=O)NC(=O)[C@@]2(C)CCC[C@]3(C)c4cc(NC(=O)[C@@H](N)CCC(=O)O)ccc4CC[C@@H]23)CCC[C@]2(C)c3cc(NC(=O)CN)ccc3CC[C@@H]12 [P10B, (S)-4-Amino-5-((4bS,8S,8aR)-8-((1S,4aS,10aR)-6-(2-aminoacetamido)-1,4a-dimethyl-1,2,3,4,4a,9,10,10a-octahydrophenanthrene-1-carbonylcarbamoyl)-4b,8-dimethyl-4b,5,6,7,8,8a,9,10-octahydrophenanthren-3-ylamino)-5-oxopentanoic acid]	0.222	11.1	–	–	–	–
CN[C@H](CC(C)C)C(=O)N[C@H]1C(=O)N[C@@H](CC(N)=O)C(=O)N[C@H]2C(=O)N[C@H]3C(=O)N[C@H](C(=O)N[C@H](C(=O)O)c4cc(O)cc(O)c4-c4cc3ccc4O)[C@H](O)c3ccc(c(Cl)c3)Oc3cc2cc(c3O[C@@H]2O[C@H](CO)[C@@H](O)[C@H](O)[C@H]2O[C@H]2C[C@](C)(N)[C@H](O)[C@H](C)O2)Oc2ccc(cc2Cl)[C@H]1O [vancomycin]	–	–	approximately 2 logs	none of the mice had levels of S. aureus reduced below the limit of detection	0/6	2.07E+06
C[C@]1(C(=O)NC(=O)[C@@]2(C)CCC[C@]3(C)c4cc(NC(=O)[C@@H](N)CCCCN)ccc4CC[C@@H]23)CCC[C@]2(C)c3cc(N)ccc3CC[C@@H]12 [P6B, (1S,4aS,10aR)-6-Amino-N-((1S,4aS,10aR)-6-((S)-2,6-diaminohexanamido)-1,4a-dimethyl-1,2,3,4,4a,9,10,10a-octahydrophenanthrene-1-carbonyl)-1,4a-dimethyl-1,2,3,4,4a,9,10,10a-octahydrophenanthrene-1-carboxamide]	3.34	10.9	–	–	–	–
C[C@]1(C(=O)NC(=O)[C@@]2(C)CCC[C@]3(C)c4cc(NC(=O)[C@@H](N)CCC(=O)O)ccc4CC[C@@H]23)CCC[C@]2(C)c3cc(NC(=O)[C@@H](N)CCC(=O)O)ccc3CC[C@@H]12 [P11B, (4S,4'S)-5,5′-(4bS,4b'S,8S,8aR,8'S,8a′R)-8,8′-(Azanediylbis(oxomethylene))bis(4b,8-dimethyl-4b,5,6,7,8,8a,9,10-octahydrophenanthrene-8,3-diyl)bis(azanediyl)bis(4-amino-5-oxopentanoic acid)]	0.112	10.7	–	–	–	–

The next lines start with results.

EC50 (LXR (THP1/LXR-Luc cells)) [nM]	SMILES	maximal fold induction (LXR (THP1/LXR-Luc cells))	reduction of S. aureus kidney burden ([1]; 110 mg/kg s.c. twice daily, days 1 to 3 post infection, day 4)	mice with S. aureus levels below the LOD (in words) ([1]; vancomycin alone, 110 mg/kg s.c. twice daily)	# of mice with S. aureus below the limit of detection [1, 2]	Average cfu/kidney pair [1, 2] [cfu/kidney pair]
3.51	C[C@]1(C(=O)NC(=O)[C@@]2(C)CCC[C@]3(C)c4cc(NC(=O)[C@@H](N)CCC(=O)O)ccc4CC[C@@H]23)CCC[C@]2(C)c3cc(N)ccc3CC[C@@H]12 [P8B, (S)-4-Amino-5-((4bS,8S,8aR)-8-((1S,4aS,10aR)-6-Amino-1,4a-dimethyl-1,2,3,4,4a,9,10,10a-octahydrophenanthrene-1-carbonylcarbamoyl)-4b,8-dimethyl-4b,5,6,7,8,8a,9,10-octahydrophenanthren-3-ylamino)-5-oxopentanoic acid]	10.8	–	–	–	–
0.234	C[C@]1(C(=O)NC(=O)[C@@]2(C)CCC[C@]3(C)c4cc(NC(=O)[C@@H](N)Cc5cnc[nH]5)ccc4CC[C@@H]23)CCC[C@]2(C)c3cc(N)ccc3CC[C@@H]12 [P9B, (1S,4aS,10aR)-6-amino-N-((1S,4aS,10aR)-6-((S)-2-amino-3-(1H-imidazol-4-yl)propanamido)-1,4a-dimethyl-1,2,3,4,4a,9,10,10a-octahydrophenanthrene-1-carbonyl)-1,4a-dimethyl-1,2,3,4,4a,9,10,10a-octahydrophenanthrene-1-carboxamide]	12.8	–	–	–	–
0.125	C[C@]1(C(=O)NC(=O)[C@@]2(C)CCC[C@]3(C)c4cc(NC(=O)CN)ccc4CC[C@@H]23)CCC[C@]2(C)c3cc(N)ccc3CC[C@@H]12 [P4B, (1S,4aS,10aR)-N-[(1S,4aS,10aR)-6-(2-Aminoacetamido)-1,4a-dimethyl-1,2,3,4,4a,9,10,10a-octahydrophenanthrene-1-carbonyl]-6-amino-1,4a-dimethyl-1,2,3,4,4a,9,10,10a-octahydrophenanthrene-1-carboxamide]	10.4	–	–	–	–
0.174	C[C@]1(C(=O)NC(=O)[C@@]2(C)CCC[C@]3(C)c4cc(NC(=O)[C@@H](N)CO)ccc4CC[C@@H]23)CCC[C@]2(C)c3cc(N)ccc3CC[C@@H]12 [P5B, (1S,4aS,10aR)-6-Amino-N-((1S,4aS,10aR)-6-((S)-2-amino-3-hydroxypropanamido)-1,4a-dimethyl-1,2,3,4,4a,9,10,10a-octahydrophenanthrene-1-carbonyl)-1,4a-dimethyl-1,2,3,4,4a,9,10,10a-octahydrophenanthrene-1-carboxamide]	13.8	–	–	–	–
0.253	C[C@]1(C(=O)NC(=O)[C@@]2(C)CCC[C@]3(C)c4cc(NC(=O)[C@@H](N)CC(=O)O)ccc4CC[C@@H]23)CCC[C@]2(C)c3cc(N)ccc3CC[C@@H]12 [P7B, (S)-3-Amino-4-((4bS,8S,8aR)-8-((1S,4aS,10aR)-6-amino-1,4a-dimethyl-1,2,3,4,4a,9,10,10a-octahydrophenanthrene-1-carbonylcarbamoyl)-4b,8-dimethyl-4b,5,6,7,8,8a,9,10-octahydrophenanthren-3-ylamino)-4-oxobutanoic acid]	12.5	–	–	–	–
